We go through eleven molecules from patent publication US11040981B2, “Pyrrolotriazine compounds and methods of inhibiting TAM kinases” (Syros Pharmaceuticals, Inc., priority 2017, dated 2021).

pIC50: −log10 of the molar value.

One assay concerns the target T1, FLT3 (Homo sapiens, UniProt P36888).
T1 sequence (P36888 27-993): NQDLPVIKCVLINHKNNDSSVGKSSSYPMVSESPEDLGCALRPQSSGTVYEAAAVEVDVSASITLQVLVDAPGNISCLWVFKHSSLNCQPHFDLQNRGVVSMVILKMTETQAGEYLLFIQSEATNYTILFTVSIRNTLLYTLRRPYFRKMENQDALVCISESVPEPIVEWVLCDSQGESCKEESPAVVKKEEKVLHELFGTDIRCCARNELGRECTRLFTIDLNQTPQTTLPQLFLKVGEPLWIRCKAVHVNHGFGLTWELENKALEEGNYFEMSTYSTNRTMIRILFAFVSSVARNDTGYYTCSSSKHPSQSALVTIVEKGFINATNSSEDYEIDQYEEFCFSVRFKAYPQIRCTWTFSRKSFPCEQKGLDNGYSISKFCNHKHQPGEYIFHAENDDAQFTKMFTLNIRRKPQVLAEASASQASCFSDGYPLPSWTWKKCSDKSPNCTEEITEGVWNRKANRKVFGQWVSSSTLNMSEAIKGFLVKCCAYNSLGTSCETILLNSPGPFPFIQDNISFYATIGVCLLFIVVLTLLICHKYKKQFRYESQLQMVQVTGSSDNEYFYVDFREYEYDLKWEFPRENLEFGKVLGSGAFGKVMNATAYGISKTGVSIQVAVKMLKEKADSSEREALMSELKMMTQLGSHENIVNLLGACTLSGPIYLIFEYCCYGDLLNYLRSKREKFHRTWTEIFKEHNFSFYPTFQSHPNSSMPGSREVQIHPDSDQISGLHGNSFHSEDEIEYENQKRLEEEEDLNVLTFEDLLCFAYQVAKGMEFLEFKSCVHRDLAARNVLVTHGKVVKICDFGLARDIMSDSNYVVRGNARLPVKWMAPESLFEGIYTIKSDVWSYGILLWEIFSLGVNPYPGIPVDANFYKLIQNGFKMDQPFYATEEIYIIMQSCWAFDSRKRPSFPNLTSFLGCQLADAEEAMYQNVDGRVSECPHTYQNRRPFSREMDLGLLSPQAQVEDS
Description: TR-FRET kinase activity assay, FLT3. To be noted: ATP at Km, 60 minutes. The class given is biochemical. Put shortly: (§1)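 Enzyme, fluorescent peptide substrate and compound were mixed, and the reaction was started with ATP at each kinase's Km, in 50 mM HEPES pH 7.5, 10 mM MgCl2, 1 mM EGTA, 0.01% Brij 35, 1 mM DTT at RT. After 60 minutes EDTA quench, Eu-labelled phospho-specific antibody was added for 30 minutes, and IC50 was derived from TR-FRET signal loss.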

A further assay addresses T2, MERTK (Homo sapiens, UniProt Q12866).
T2 sequence (Q12866 21-999): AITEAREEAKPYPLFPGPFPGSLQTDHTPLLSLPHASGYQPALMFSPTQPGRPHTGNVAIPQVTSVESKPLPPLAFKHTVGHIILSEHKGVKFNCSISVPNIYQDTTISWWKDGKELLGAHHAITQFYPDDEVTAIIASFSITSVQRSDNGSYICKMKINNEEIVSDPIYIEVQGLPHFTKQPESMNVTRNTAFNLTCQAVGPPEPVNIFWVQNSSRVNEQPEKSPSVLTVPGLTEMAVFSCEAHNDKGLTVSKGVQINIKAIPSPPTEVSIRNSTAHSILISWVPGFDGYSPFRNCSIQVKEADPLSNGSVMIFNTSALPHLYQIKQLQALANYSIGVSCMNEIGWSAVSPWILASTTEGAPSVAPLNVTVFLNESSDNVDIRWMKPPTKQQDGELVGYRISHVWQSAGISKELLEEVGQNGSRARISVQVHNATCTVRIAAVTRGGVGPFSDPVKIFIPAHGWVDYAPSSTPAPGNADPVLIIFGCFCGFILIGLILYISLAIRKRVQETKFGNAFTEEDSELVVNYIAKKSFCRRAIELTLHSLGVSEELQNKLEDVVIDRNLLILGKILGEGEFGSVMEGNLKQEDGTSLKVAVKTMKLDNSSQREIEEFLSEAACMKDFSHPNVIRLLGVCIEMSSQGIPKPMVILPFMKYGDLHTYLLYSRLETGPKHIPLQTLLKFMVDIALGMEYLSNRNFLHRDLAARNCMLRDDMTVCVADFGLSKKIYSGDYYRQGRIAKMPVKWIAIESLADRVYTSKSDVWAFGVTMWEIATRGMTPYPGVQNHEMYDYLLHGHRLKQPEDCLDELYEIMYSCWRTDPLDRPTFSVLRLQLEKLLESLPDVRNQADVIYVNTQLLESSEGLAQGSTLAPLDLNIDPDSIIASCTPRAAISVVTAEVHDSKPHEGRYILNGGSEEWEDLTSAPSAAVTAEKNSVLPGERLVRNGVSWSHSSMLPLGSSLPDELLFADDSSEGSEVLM
Description: TR-FRET kinase activity assay, MERTK. Format: biochemical. To be noted: for pIC50: TR-FRET activity assay, ATP at Km, 60 minutes, read-out: Mer IC50. A digest of the protocol: as §1

The mark [1] stands for this setting: ratio of Mer to FLT3: FLT3 IC50/Mer IC50.
The mark [2] stands for this setting: ratio calculated as FLT3 IC50/Mer IC50.

Consider `CCCCC[C@H](C)Nc1ncc2c(-c3ccc(S(=O)(=O)N4CCOCC4)cc3)cc([C@H]3CC[C@H](O)CC3)n2n1` [Compound 102, (1S,4r)-4-(2-((S)-heptan-2-ylamino)-5-(4-(morpholinosulfonyl)phenyl)pyrrolo[2,1-f][1,2,4]triazin-7-yl)cyclohexanol], for which the pIC50 on FLT3 was 6.00 to 7.00; on MERTK it was at least 7.00. For the same molecule, the “FLT3/Mer ratio (FLT3 IC50/Mer IC50)” value on MERTK (setting [1]) was “++ (“++” represents a ratio of between 10 and 100)”.
For the molecule `C[C@@H](CC(F)(F)F)Nc1ncc2c(-c3cnn(C(C)(C)C(=O)C4COC4)c3)cc([C@H]3CC[C@](C)(O)CC3)n2n1` [Compound 610], the pIC50 at FLT3 and on MERTK was at least 7.00 in each case. The “FLT3/Mer ratio (FLT3 IC50/Mer IC50)” value at MERTK (setting [2]) was “++ (“++” represents a ratio of between 10 and 100)”.
Turning to `COC[C@H](C)Nc1ncc2c(-c3ccnc(N4CC(C)(O)C4)c3)cc(C3CCC(O)CC3)n2n1` (stereo partly drawn) [Compound 632], the values for the pIC50 on FLT3 and at MERTK were 6.00 to 7.00 and at least 7.00, respectively. In addition, at MERTK (setting [2]), the “FLT3/Mer ratio (FLT3 IC50/Mer IC50)” value is listed as “+++ (“+++” represents a ratio of >100)”.
Take `COC[C@H](C)Nc1ncc2c(-c3cnn(C(C)(C)c4nnc([C@H]5CCCO5)o4)c3)cc([C@H]3CC[C@H](O)CC3)n2n1` [Compound 602]: the values for the pIC50 against FLT3 and on MERTK were 5.00 to 6.00 and at least 7.00, respectively. For the same molecule, the “FLT3/Mer ratio (FLT3 IC50/Mer IC50)” value at MERTK (setting [2]) is on record as “+++ (“+++” represents a ratio of >100)”.
For `COC[C@H](C)Nc1ncc2c(C3=CC4CCC(C3)N4)cc([C@H]3CC[C@H](O)CC3)n2n1` (stereo partly drawn) [Compound 170], the values for the pIC50 against FLT3 and on MERTK were 5.00 to 6.00 and at least 7.00, respectively. In addition, the “FLT3/Mer ratio (FLT3 IC50/Mer IC50)” value at MERTK (setting [1]) was “+++ (“+++” represents a ratio of >100)”.
The matching figures for `COC[C@H](C)Nc1ncc2c(N3CCCC3=O)cc([C@H]3CC[C@H](O)CC3)n2n1` [Compound 177]: 5.00 to 6.00, at least 7.00 and “+++ (“+++” represents a ratio of >100)”.
In the case of `COC[C@H](C)Nc1ncc2c(-c3ccc(CN4CCN(C)CC4)cc3)cc([C@H]3CC[C@@H](O)CC3)n2n1` [Compound 155], the pIC50 at FLT3 is 6.00 to 7.00; on MERTK it was at least 7.00. Moreover, the “FLT3/Mer ratio (FLT3 IC50/Mer IC50)” value on MERTK (setting [1]) was “++ (“++” represents a ratio of between 10 and 100)”.
As to `C[C@@H](COC(F)F)Nc1ncc2c(-c3cnn(C(C)(C)C(=O)N4CC5(COC5)C4)c3)cc([C@H]3CC[C@H](O)CC3)n2n1` [Compound 613], the pIC50 at FLT3 and at MERTK was at least 7.00 each time. Further, on MERTK (setting [2]), the “FLT3/Mer ratio (FLT3 IC50/Mer IC50)” value is reported as “+++ (“+++” represents a ratio of >100)”.
Consider `CC(CC#N)Nc1ncc2c(-c3ccc(CN4CCN(C)CC4)cc3)cc(C3CCC(O)CC3)n2n1` (stereo not drawn) [Compound 145], for which the pIC50 on FLT3 and at MERTK was at least 7.00 in each case. Moreover, the “FLT3/Mer ratio (FLT3 IC50/Mer IC50)” value on MERTK (setting [1]) was “++ (“++” represents a ratio of between 10 and 100)”.
As to `COC[C@H](C)Nc1ncc2c(-c3cnn(CC(=O)N4CCOCC4)c3)cc([C@H]3CC[C@H](O)CC3)n2n1` [Compound 162], the values for the pIC50 against FLT3 and at MERTK were 6.00 to 7.00 and at least 7.00, respectively. The “FLT3/Mer ratio (FLT3 IC50/Mer IC50)” value at MERTK (setting [1]) is on record as “+++ (“+++” represents a ratio of >100)”.
Take `COC[C@H](C)Nc1ncc2c(-c3ccnc(C(C)(C)O)c3)cc([C@H]3CC[C@H](O)CC3)n2n1` [Compound 619]: the pIC50 at FLT3 is 6.00 to 7.00; on MERTK, at least 7.00. Also, at MERTK (setting [2]), the “FLT3/Mer ratio (FLT3 IC50/Mer IC50)” value is given as “+++ (“+++” represents a ratio of >100)”.
